Laboratory results taken from ChEMBL document CHEMBL4828758, “Elucidation of Distinct Modular Assemblies of Smoothened Receptor by Bitopic Ligand Measurement” (J Med Chem, 2021).
Active and inactive are the calls of the source. No cut-off for these calls is given here.

Tests used:
Assay type in all cases: functional, cell-based
[1] = target: Protein smoothened (Mus musculus) (UniProt P56726); experiment: Agonist activity at SMO in mouse NIH3T3 cells assessed as induction of SMO accumulation in primary cilia incubated for 12 hrs by fluorescence method; conditions: filed as agonist
Protein smoothened (Mus musculus), sequence (P56726 whole entry): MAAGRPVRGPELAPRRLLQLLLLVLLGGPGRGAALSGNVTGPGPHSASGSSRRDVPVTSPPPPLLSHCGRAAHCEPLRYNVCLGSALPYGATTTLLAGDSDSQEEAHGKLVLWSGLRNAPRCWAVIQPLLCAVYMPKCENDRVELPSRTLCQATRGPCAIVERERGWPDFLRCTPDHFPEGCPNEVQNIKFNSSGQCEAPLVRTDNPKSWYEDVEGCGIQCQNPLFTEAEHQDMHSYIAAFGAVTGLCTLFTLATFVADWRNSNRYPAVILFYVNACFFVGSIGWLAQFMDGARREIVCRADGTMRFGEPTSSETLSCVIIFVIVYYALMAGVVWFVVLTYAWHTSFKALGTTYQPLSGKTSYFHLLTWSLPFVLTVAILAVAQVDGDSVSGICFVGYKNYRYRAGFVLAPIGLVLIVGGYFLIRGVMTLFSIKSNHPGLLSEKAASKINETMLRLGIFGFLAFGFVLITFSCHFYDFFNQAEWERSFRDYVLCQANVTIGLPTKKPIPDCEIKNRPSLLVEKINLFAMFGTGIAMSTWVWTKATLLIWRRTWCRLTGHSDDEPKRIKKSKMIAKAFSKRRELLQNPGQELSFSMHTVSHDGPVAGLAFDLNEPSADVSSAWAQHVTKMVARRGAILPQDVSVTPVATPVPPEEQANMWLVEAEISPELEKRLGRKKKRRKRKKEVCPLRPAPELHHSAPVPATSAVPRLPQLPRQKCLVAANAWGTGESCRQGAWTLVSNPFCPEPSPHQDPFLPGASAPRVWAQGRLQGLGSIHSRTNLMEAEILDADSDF

[2] = target: Protein smoothened (Mus musculus) (UniProt P56726); experiment: Agonist activity at SMO in mouse NIH3T3 cells preincubated for 2 hrs followed by SAG stimulation and measured after 24 hrs in presence of GDC0449 by Bright-Glo luciferase assay; conditions: filed as agonist, time 26.0 hrs
[3] = target: Protein smoothened (Mus musculus) (UniProt P56726); experiment: Antagonist activity at SMO in mouse NIH3T3 cells preincubated for 2 hrs followed by ShhN stimulation and measured after 24 hrs in presence of GDC0449 by Bright-Glo luciferase assay; conditions: filed as antagonist, time 26.0 hrs
[4] = target: Protein smoothened (Mus musculus) (UniProt P56726); experiment: Antagonist activity at SMO in mouse NIH3T3 cells preincubated for 2 hrs followed by SAG stimulation and measured after 24 hrs in presence of GDC0449 by Bright-Glo luciferase assay; conditions: time 26.0 hrs
[5] = target: Protein smoothened (Mus musculus) (UniProt P56726); experiment: Agonist activity at SMO in mouse NIH3T3 cells assessed as induction of SMO accumulation in primary cilia incubated for 12 hrs by AlexaFluor 488/ DAPI staining based immunofluorescence method; conditions: filed as agonist
[6] = target: Protein smoothened (Mus musculus) (UniProt P56726); experiment: Agonist activity at SMO in mouse NIH3T3 cells assessed as fluorescent intensity of ciliary SMO incubated for 12 hrs by fluorescence method; conditions: filed as agonist
[7] = target: Protein smoothened (Mus musculus) (UniProt P56726); experiment: Antagonist activity at SMO in mouse NIH3T3 cells preincubated for 2 hrs followed by SAG stimulation and measured after 24 hrs by Bright-Glo luciferase assay; conditions: time 26.0 hrs

Activity [7] | Structure (SMILES) | Activity [1] | Activity [2] | Activity [3] | Activity [4] | Activity [5] | Activity [6]
– | CC(C)CCC[C@](C)(O)[C@H]1CC[C@H]2[C@@H]3CC=C4C[C@@H](O)CC[C@]4(C)[C@H]3CC[C@@]21C | Active | Active | Active | inactive | Active | Active
inactive | CC(O)(CCCCCCOCCOCc1cn(CCOCCS(=O)(=O)c2ccc(C(=O)Nc3ccc(Cl)c(-c4ccccn4)c3)c(Cl)c2)nn1)C1CC[C@H]2[C@@H]3CC=C4C[C@@H](O)CC[C@]4(C)[C@H]3CC[C@]12C (stereo partly drawn) | – | – | – | – | – | –
inactive | CC(O)(CCCCCCOCc1cn(CCOCCS(=O)(=O)c2ccc(C(=O)Nc3ccc(Cl)c(-c4ccccn4)c3)c(Cl)c2)nn1)C1CC[C@H]2[C@@H]3CC=C4C[C@@H](O)CC[C@]4(C)[C@H]3CC[C@]12C (stereo partly drawn) | – | – | – | – | – | –
